Assay results: patent US8846946B2, “Germinal alkoxy/alkylspirocyclic substituted tetramate derivatives” (Bayer CropScience AG, priority 2008, dated 2014)

Legend:
Type in all cases: in vivo
Boophilus microplus = Boophilus microplus test (BOOPMI injection); details: application rate of 20 μg/animal, injection into the abdomen
Method: (§1) • Solvent: dimethyl sulphoxide
(§2) To prepare a suitable active compound preparation, 1 part by weight of active compound is mixed with the stated amount of solvent, and the concentrate is diluted with water to the desired concentration.
The solution of active compound is injected into the abdomen (Boophilus microplus), and the animals are transferred into dishes and kept in a climatised room. The activity is assessed by […] of fertile eggs.
After the desired period of time, the effect in % is determined. 100% means that none of the ticks has laid any fertile eggs.

Lucilia cuprina larvae = experiment: Lucillia cuprina test (LUCICU); details: application rate of 100 ppm, treated horse meat
Method: as §1, §2
Vessels containing horse meat treated with the active compound preparation of the desired concentration are populated with Lucilia cuprina larvae.
After the desired period of time, the kill in % is determined. 100% means that all of the larvae have been killed; 0% means that none of the larvae have been killed.

Summer wheat = experiment: Container trials with cereal in a greenhouse, use of safeners (mefenpyr 1 day prior to herbicide application); details: 28 days after application, without safener
Method: Seeds of monocotyledonous and dicotyledonous weed and crop plants are placed in sandy loam in wood fibre pots, covered with soil and cultivated in a greenhouse under good growth conditions. 2 to 3 weeks after sowing, the test plants are treated at the one-leaf stage. The test compounds, formulated as wettable powders (WP), are then, with a water application rate of 600 l/ha (converted), with 0.2% of wetting agent added, sprayed at various dosages onto the green parts of the plants. After the test plants have […], the activity of the preparations is rated visually in comparison to untreated controls (herbicidal activity in percent: 100% activity=the plants have died, 0% activity=like control plants).
If it is additionally to be tested as to whether safeners can improve the plant compatibility of test substances in the case of crop plants, the following options are used for applying the safener: • seeds of the crop plants are, before sowing, dressed with the safener substance (the amount of safener stated in percent, based on the weight of the seed) • before application of the test substances, the crop plants are sprayed with the safener at a certain application rate per hectare (usually 1 day before the application of the test substances) • the safener is applied together with the test substance as a tank mix (the amount of safener stated in g/ha or as a ratio, based on the herbicide). Container Trials with Cereal in a Greenhouse Mefenpyr 1 Day Prior to Herbicide Application

COC1(C)CCC2(CC1)NC(=O)C(c1c(C)cc(Cl)cc1C)=C2O (mixture of isomers) [I-a-3]
efficacy (no fertile eggs laid) (Boophilus microplus): good efficacy
kill in % (larvae killed) (Lucilia cuprina larvae): ≥ 80%

CCc1cc(C)cc(C)c1C1=C(O)C2(CCC(CC)(OC)CC2)NC1=O (mixture of isomers) [I-a-64]
Summer wheat observed (%) (Summer wheat; application rate 12.5 g a.i./ha): 20%
Summer wheat observed (%) (Summer wheat; application rate 25 g a.i./ha): 60%
Summer wheat observed (%) (Summer wheat; application rate 50 g a.i./ha): 70%

CCOC(=O)OC1=C(c2c(C)cc(C)cc2C)C(=O)NC12CCC(C)(OC)CC2 (stereo not drawn) [I-c-3]
efficacy (no fertile eggs laid) (Boophilus microplus): good efficacy
